≈ marks a conversion by molar mass, not a printed value.
Legend:
[1] = test system: Klebsiella pneumoniae ATCC 43816; assay: Further murine respiratory infection study, intravenous infusion; format: in vivo; conditions: 26 h
Procedure: Compound (I) was evaluated in further proof-of-concept studies in murine models for the treatment of a respiratory infection with Gram-negative bacteria of the order Enterobacterales, and a urinary tract infection with Gram-negative bacteria of the order Enterobacterales. Each dot, triangle or square indicator represents a single mouse. LOD refers to the limit of detection of the bacteria. […] Each of the proof-of-concept studies was carried out separately. By vehicle is meant pharmaceutically acceptable excipient or carrier. For the further proof-of-concept study for the treatment of a respiratory infection caused or exacerbated by Gram-negative bacteria of the order Enterobacterales, male CD-1 mice were infected with Klebsiella pneumoniae ATCC 43816. Two hours after infection (‘pre-treatment’ in FIG. 5), mice were either treated with a vehicle control (phosphate buffer) containing no compound (I), or a vehicle (phosphate buffer) containing compound (I), administered by intravenous infusion for 1 hour (QD) with a dose of 20 mg/kg of compound (I). For the mice that received the vehicle control containing no compound (I), and some mice who received the vehicle containing compound (I), an additional 1-hour continuous intravenous infusion was administered 3 hours after the time at which the first administration begun (BID, 3 hrs apart).

[2] = Volume of distribution (Vss) from mouse plasma profiles; format: in vivo; conditions: mice, 5 mg/kg IV bolus, 2 compartment model
Procedure: The volume of distribution (Vss) of compound (I) and comparative compounds (II) and (III) was determined from analysis of plasma concentration time profiles obtained from rodent species (mice), following 5 mg/kg IV bolus administration respectively. The volume of distribution was obtained by analysing the rodent plasma profiles for compound (I) and comparative compounds (II) and (III) using a 2 compartment IV bolus model in PK Solver (Excel). The volume of distribution data for compound (I) and comparative compound (II) was collected in separate experiments carried out on different days, and compared in Table 6.

[3] = Lipophilicity, Log P measured with SiriusT3 (octanol titration); format: physicochemical; conditions: octanol / aqueous sample solution
Procedure: Log P values of compound (I) and comparative compound (III) were measured using the SiriusT3 instrument from Sirius Analytical by performing an acid-based titration and measuring the shift in pKa when the sample solution is in contact with an immiscible solvent (octanol). Log P for the comparative compound (II) was calculated using Marvin (physico-chemical calculation software). The lipophilicity data for compound (I) and comparative compounds (II) and (III) was collected in separate experiments carried out on different days, and compared in Table 5.

[4] = test system: Klebsiella pneumoniae ATCC 43816; assay: Murine respiratory infection proof-of-concept study, IV bolus; format: in vivo
Procedure: Compound (I) and comparative compound (III) were evaluated in proof-of-concept studies in murine models for the treatment of a respiratory infection with Gram-negative bacteria of the order Enterobacterales, a bacteraemia or bloodstream infection with Gram-negative bacteria of the order Enterobacterales, and a urinary tract infection with Gram-negative bacteria of the order Enterobacterales. Each dot, triangle or square indicator represents a single mouse. LOD refers to the limit of detection of the bacteria. […] Each of the proof-of-concept studies was carried out separately. By vehicle is meant pharmaceutically acceptable carrier or excipient. For the proof-of-concept study for the treatment of a respiratory infection caused or exacerbated by Gram-negative bacteria of the order Enterobacterales, CD-1 mice were infected with Klebsiella pneumoniae ATCC 43816. Two hours after infection (‘pre-treatment’ in FIG. 2), a vehicle (20% hydroxypropyl β cyclodextrin) containing no compound (I) or comparative compound (III), or a vehicle (20% hydroxypropyl β cyclodextrin) containing compound (I) or comparative compound (III), was administered by IV bolus at 20 mg/kg, TID (8 hrs apart), over one day.

[5] = test system: 44 ligands (including receptors, transporters, ion channels, enzymes and kinases); assay: In vitro safety pharmacology binding assays (CEREP profile); conditions: 10 μM, 44 ligands tested
Procedure: In vitro pharmacology binding assays were carried out for compound (I), comparative compound (II) and comparative compound (III) to evaluate the percentage of inhibition against 44 ligands (including receptors, transporters, ion channels, enzymes and kinases) at a concentration of 10 μM of compound (I), comparative compound (II) or comparative compound (III). Compound binding was calculated as a percentage of inhibition of the binding of a radioactively labelled ligand specific for each target. Results showing an inhibition higher than 50% are considered to represent discernible effects of compound (I), comparative compound (II) or comparative compound (III). […] The in vitro pharmacology binding assays for compound (I) and comparative compounds (II) and (III) was carried out separately over different days, and compared in FIGS. 1a, 1b, 1c, and 1d.

[6] = test system: Proteus mirabilis (DSM 4479); assay: MIC by broth microdilution (CLSI); format: cell-based; conditions: DSM4479
Procedure: Minimum Inhibitory Concentrations (MICs) versus Escherichia coli (NCTC 13441) and Klebsiella pneumoniae (NCTC 13438) (planktonic bacteria) were determined by the broth microdilution procedure in line with the guidelines of the Clinical and Laboratory Standards Institute (Clinical and Laboratory Standards Institute. Methods for Dilution Antimicrobial Susceptibility Tests for Bacteria That Grow Aerobically, Approved Standard-Eleventh Edition, CLSI document M07, 11 Jan. 2018). The broth dilution method involved a two-fold serial dilution of compounds in 96-well microtitre plates, giving a final concentration range of 0.39-200 μM and a maximum final concentration of 2% DMSO. The bacterial strains tested were Escherichia coli (NCTC 13441) and Klebsiella pneumoniae (NCTC 13438). Strains were grown in cation-adjusted Müller-Hinton broth or on Luria Bertani agar at 37° C. in an ambient atmosphere. The MIC (μM) was determined as the lowest concentration of compound that inhibits growth following a 20-24 hour incubation period.
Minimum Inhibitory Concentrations (MICs) versus Proteus mirabilis (DSM 4479) were determined for compound (I) and comparative compounds (II) and (III) using the methodology outlined above.

[7] = 1 h IV infusion 20 mg/kg twice (BID, 3 hrs apart)

Cc1cnccc1-c1[nH]c(N)nc1-c1ccc2c(c1)N(C(=O)C(C)(C)N)CCO2 [Compound (I), 2-amino-1-(6-(2-amino-5-(3-methylpyridin-4-yl)-1H-imidazol-4-yl)-2,3-dihydro-4H-benzo[b][1,4]oxazin-4-yl)-2-methylpropan-1-one]
reduction of bacterial burden in the lung compared to pre-treatment (stasis levels) ([1]; 1 h IV infusion 20 mg/kg once (QD)): 0.95 log | reduction of bacterial burden in the lung compared to pre-treatment (stasis levels) [1, 7]: 1.80 log | reduction of bacterial burden in the lung compared to vehicle [1, 7]: 5.20 log | reduction of bacterial burden in the lung compared to vehicle ([1]; male CD-1 mice, 1 h IV infusion 20 mg/kg once (QD)): 4.35 log | Vd [2]: 19.7 L/kg | logP [3]: 1.6 | reduction of bacterial burden in the lung compared to vehicle ([4]; CD-1 mice, IV bolus 20 mg/kg TID over one day, 26 h from initial infection): 6.24 log | more efficacious than comparative compound (III), lung ([4]; difference in log reduction, 26 h): 2 log | ligands with inhibition higher than 50% [5]: only a single ligand | MIC [6]: 25 µM (≈ 9.81 µg/mL)
